Experimental findings from ChEMBL document CHEMBL1133214, “Novel nikkomycin analogues: inhibitors of the fungal cell wall biosynthesis enzyme chitin synthase” (Bioorg Med Chem Lett, 2000) are described below.

Broadly, the IC50 is the concentration that inhibits the measured activity by half. Higher therefore signals weaker potency.

Each structure is given as a SMILES string. Converted amounts (≈) assume the structure as drawn.

Experiment [1] is described as follows: Inhibition of chitin synthase isolated from Candida Albicans.
A further experiment deals with Candida albicans. Put plainly: Percent inhibition rate of 100 ug/mL against chitin synthase isolated from Candida albicans.

`N[C@@H](CSc1ccc(C(=O)O)cn1)C(=O)N[C@H](C(=O)O)[C@H]1O[C@@H](n2ccc(=O)[nH]c2=O)[C@H](O)C1O` (single isomer, unassigned): the IC50 in experiment [1] was 52.5 µg/mL (≈ 103 µM). The same molecule registered a Rate with Candida albicans of 64%. In turn, `N[C@@H](CSCC1CCCCC1)C(=O)N[C@H](C(=O)O)[C@H]1O[C@@H](n2ccc(=O)[nH]c2=O)[C@H](O)C1O` (single isomer, unassigned) returned a Rate in the experiment on Candida albicans of 67%.

Turning to `CC(C)(SCc1ccc(O)cc1)[C@H](N)C(=O)N[C@H](C(=O)O)[C@H]1O[C@@H](n2ccc(=O)[nH]c2=O)[C@H](O)C1O` (single isomer, unassigned), in experiment [1], the IC50 amounted to 5.89 µg/mL (≈ 11.2 µM). The Rate in the experiment with Candida albicans amounted to 99%.

Take `CC(C)=CCC/C(C)=C/CSC[C@H](N)C(=O)N[C@H](C(=O)O)[C@H]1O[C@@H](n2ccc(=O)[nH]c2=O)[C@H](O)C1O` (single isomer, unassigned): in the experiment with Candida albicans, the Rate was 22%. The same measure, in the same setting: the value for `Nc1ccc(SC[C@H](N)C(=O)N[C@H](C(=O)O)[C@H]2O[C@@H](n3ccc(=O)[nH]c3=O)[C@H](O)C2O)nc1` (single isomer, unassigned) was 42%; that for `N[C@@H](CSCc1ccccc1)C(=O)N[C@H](C(=O)O)[C@H]1O[C@@H](n2ccc(=O)[nH]c2=O)[C@H](O)C1O` (single isomer, unassigned) was 78%. In experiment [1], `N[C@@H](Cc1cc2ccccc2c2ccccc12)C(=O)N[C@H](C(=O)O)[C@H]1O[C@@H](n2ccc(=O)[nH]c2=O)[C@H](O)C1O` (single isomer, unassigned) yielded an IC50 of 0.31 µg/mL (≈ 0.58 µM). The Rate with Candida albicans worked out at 99%.

Regarding `C[C@@H]([C@H](N)C(=O)N[C@H](C(=O)O)[C@H]1O[C@@H](n2ccc(=O)[nH]c2=O)[C@H](O)C1O)[C@H](O)c1ccc(O)cn1` (single isomer, unassigned) [NIKKOMYCIN], in experiment [1], the IC50 is 0.393 µg/mL (≈ 0.793 µM). As to `N[C@@H](CSc1ccccn1)C(=O)N[C@H](C(=O)O)[C@H]1O[C@@H](n2ccc(=O)[nH]c2=O)[C@H](O)C1O` (single isomer, unassigned), the Rate in the experiment with Candida albicans came to 48%. In the experiment with Candida albicans, `CC(=O)NCSC[C@H](N)C(=O)N[C@H](C(=O)O)[C@H]1O[C@@H](n2ccc(=O)[nH]c2=O)[C@H](O)C1O` (single isomer, unassigned) gave a Rate of 65%. `CC(C)(SCc1ccccc1)[C@H](N)C(=O)N[C@H](C(=O)O)[C@H]1O[C@@H](n2ccc(=O)[nH]c2=O)[C@H](O)C1O` (single isomer, unassigned) yielded an IC50 in experiment [1] of 9.83 µg/mL (≈ 19.3 µM). Moreover, the Rate in the experiment on Candida albicans worked out at 97%.

With `N[C@@H](Cc1ccc(O)cn1)C(=O)N[C@H](C(=O)O)[C@H]1O[C@@H](n2ccc(=O)[nH]c2=O)[C@H](O)C1O` (single isomer, unassigned), the Rate with Candida albicans was 34%. With `N[C@@H](Cc1cccc2ccccc12)C(=O)N[C@H](C(=O)O)[C@H]1O[C@@H](n2ccc(=O)[nH]c2=O)[C@H](O)C1O` (single isomer, unassigned), the IC50 in experiment [1] worked out at 4.69 µg/mL (≈ 9.68 µM). Further, the Rate with Candida albicans came to 99%. `N[C@@H](Cc1cccnc1)C(=O)N[C@H](C(=O)O)[C@H]1O[C@@H](n2ccc(=O)[nH]c2=O)[C@H](O)C1O` (single isomer, unassigned): in experiment [1], the IC50 amounted to 19.8 µg/mL (≈ 45.5 µM). The same molecule returned a Rate with Candida albicans of 82%.

For `N[C@@H](Cc1ccc(O)cc1)C(=O)N[C@H](C(=O)O)[C@H]1O[C@@H](n2ccc(=O)[nH]c2=O)[C@H](O)C1O` (single isomer, unassigned), in experiment [1], the IC50 was 4.83 µg/mL (≈ 10.7 µM). The same molecule displayed a Rate in the experiment with Candida albicans of 99%. Molecule `N[C@@H](CSc1ccc2ccccc2c1)C(=O)N[C@H](C(=O)O)[C@H]1O[C@@H](n2ccc(=O)[nH]c2=O)[C@H](O)C1O` (single isomer, unassigned) registered a Rate in the experiment on Candida albicans of 40%. In turn, `N[C@@H](Cc1ccc2ccccc2c1)C(=O)N[C@H](C(=O)O)[C@H]1O[C@@H](n2ccc(=O)[nH]c2=O)[C@H](O)C1O` (single isomer, unassigned) came in with an IC50 in experiment [1] of 6.43 µg/mL (≈ 13.3 µM). In the experiment with Candida albicans, this molecule displayed a Rate of 96%. Turning to `N[C@@H](CSc1ccc(O)cc1)C(=O)N[C@H](C(=O)O)[C@H]1O[C@@H](n2ccc(=O)[nH]c2=O)[C@H](O)C1O` (single isomer, unassigned), in the experiment with Candida albicans, the Rate came to 44%. `CC(C)(SCc1ccc2ccccc2c1)[C@H](N)C(=O)N[C@H](C(=O)O)[C@H]1O[C@@H](n2ccc(=O)[nH]c2=O)[C@H](O)C1O` (single isomer, unassigned): the IC50 in experiment [1] turned out to be 1.42 µg/mL (≈ 2.54 µM). In the experiment on Candida albicans, the Rate is 94%. Regarding `CCCCCCCCCCCCSC[C@H](N)C(=O)N[C@H](C(=O)O)[C@H]1O[C@@H](n2ccc(=O)[nH]c2=O)[C@H](O)C1O` (single isomer, unassigned), in the experiment with Candida albicans, the Rate amounted to 64%. Take `CC(C)(SCc1ccccc1O)[C@H](N)C(=O)N[C@H](C(=O)O)[C@H]1O[C@@H](n2ccc(=O)[nH]c2=O)[C@H](O)C1O` (single isomer, unassigned): the half-inhibitory concentration (IC50) in experiment [1] is 13.8 µg/mL (≈ 26.3 µM). The molecule further yielded a Rate in the experiment with Candida albicans of 88%. In experiment [1], `N[C@@H](CSc1ccc(O)cn1)C(=O)N[C@H](C(=O)O)[C@H]1O[C@@H](n2ccc(=O)[nH]c2=O)[C@H](O)C1O` (single isomer, unassigned) had an IC50 of 36 µg/mL (≈ 74.5 µM). In the experiment on Candida albicans, this molecule registered a Rate of 73%.

`CC(C)(SCc1cccc(O)c1)[C@H](N)C(=O)N[C@H](C(=O)O)[C@H]1O[C@@H](n2ccc(=O)[nH]c2=O)[C@H](O)C1O` (single isomer, unassigned) yielded an IC50 in experiment [1] of 4.91 µg/mL (≈ 9.36 µM). The Rate in the experiment with Candida albicans came out at 100%. `CC(C)(SCc1ccc(O)cn1)[C@H](N)C(=O)N[C@H](C(=O)O)[C@H]1O[C@@H](n2ccc(=O)[nH]c2=O)[C@H](O)C1O` (single isomer, unassigned) came in with a Rate with Candida albicans of 58%.
